The text below walks through data of US6960614B2, “Oxygenated esters of 4-lodo phenylamino benzhydroxamic acids” (Warner-Lambert Company, priority 2000, dated 2005).

Structures are written as SMILES.

The assay has as its system MEK. Nature of the assay: Cellular Assay for Measuring MEK Inhibition (inhibition of ERK phosphorylation in C26 cells, Western blot). The format is cell-based, murine. As to conditions: for % Inhibition @ 0.1 μM / % Inhibition @ 1 μM / % Inhibition @ 10 μM: ERK phosphorylation in C26 cells; for IC50: inhibition of ERK phosphorylation in murine colon 26 (C26) carcinoma cells, determined graphically from dose response curve. An outline of the steps:
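Read-out is phospho-ERK1/2 by Western blot, normalized against total ERK1/2 after stripping and re-probing. Murine C26 colon carcinoma cells in exponential growth were exposed to a range of compound concentrations at 37° C before lysis.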

Turning to `CC(C)(CO)CONC(=O)c1ccc(F)c(F)c1Nc1ccc(I)cc1F` [Example 202, 3,4-Difluoro-2-(2-fluoro-4-iodo-phenylamino)-N-(3-hydroxy-2,2-dimethyl-propoxy)-benzamide], the “% Inhibition @ 0.1 μM” value was 59.7% and the “% Inhibition @ 1 μM” value stood at 94.6%. As for `CC(C)(CO)CONC(=O)c1cc(Cl)c(F)c(F)c1Nc1ccc(F)cc1F` [Example 203, 5-Chloro-2-(2,4-difluoro-phenylamino)-3,4-difluoro-N-(3-hydroxy-2,2-dimethyl-propoxy)-benzamide], the “% Inhibition @ 1 μM” value worked out at 0% and the “% Inhibition @ 10 μM” value is 37.4%.

The molecule `COCCOCCONC(=O)c1cc(Br)c(F)c(F)c1Nc1ccc(I)cc1C` [Example 206, 5-Bromo-3,4-difluoro-2-(4-iodo-2-methyl-phenylamino)-N-[2-(2-methoxy-ethoxy)-ethoxy]-benzamide] returned an IC50 of 140 nM.

On to `COCCOCCONC(=O)c1ccc(F)c(F)c1Nc1ccc(I)cc1Cl` [Example 207, 2-(2-Chloro-4-iodo-phenylamino)-3,4-difluoro-N-[2-(2-methoxy-ethoxy)-ethoxy]-benzamide], for which inhibition was half-maximal at 212 nM (IC50). Same read-out and setting: then `COCCOCCONC(=O)c1cc(F)c(F)c(F)c1Nc1ccc(I)cc1Cl` [Example 208, 2-(2-Chloro-4-iodo-phenylamino)-3,4,5-trifluoro-N-[2-(2-methoxy-ethoxy)-ethoxy]-benzamide], with 1030 nM. In the case of `O=C(NOCC(O)C(F)(F)F)c1cc(F)c(F)c(F)c1Nc1ccc(I)cc1F` (centres unmarked) [Example 210, 3,4,5-Trifluoro-2-(2-fluoro-4-iodo-phenylamino)-N-(3,3,3-trifluoro-2-hydroxy-propoxy)-benzamide], the “% Inhibition @ 0.1 μM” value is recorded as 79.7% and the “% Inhibition @ 1 μM” value stood at 99.2%. For the molecule `O=C(NOCC(O)C(F)(F)F)c1cc(Cl)c(F)c(F)c1Nc1ccc(F)cc1F` (centres unmarked) [Example 211, 5-Chloro-2-(2,4-difluoro-phenylamino)-3,4-difluoro-N-(3,3,3-trifluoro-2-hydroxy-propoxy)-benzamide], the “% Inhibition @ 1 μM” value is listed as 35% and the “% Inhibition @ 10 μM” value was found to be 71.9%. `O=C(NOCC(O)C(F)(F)F)c1ccc(F)c(F)c1Nc1ccc(F)cc1F` (centres unmarked) [Example 212, 2-(2,4-Difluoro-phenylamino)-3,4-difluoro-N-(3,3,3-trifluoro-2-hydroxy-propoxy)-benzamide]: the “% Inhibition @ 1 μM” value was 20.1% and the “% Inhibition @ 10 μM” value came out at 85.1%.

With `O=C(NOCC(O)C(F)(F)F)c1ccc(F)c(F)c1Nc1ccc(Cl)cc1F` (centres unmarked) [Example 213, 2-(4-Chloro-2-fluoro-phenylamino)-3,4-difluoro-N-(3,3,3-trifluoro-2-hydroxy-propoxy)-benzamide], the “% Inhibition @ 0.1 μM” value amounted to 6.2% and the “% Inhibition @ 1 μM” value stood at 78.7%. Turning to `O=C(NOCC1CC1CO)c1cc(Cl)c(F)c(F)c1Nc1ccc(F)cc1F` (centres unmarked) [Example 214, 5-Chloro-2-(2,4-difluoro-phenylamino)-3,4-difluoro-N-(2-hydroxymethyl-cyclopropylmethoxy)-benzamide], the “% Inhibition @ 1 μM” value was 15.4% and the “% Inhibition @ 10 μM” value is reported as 38.2%. For `O=C(NOCC1CC1CO)c1ccc(F)c(F)c1Nc1ccc(F)cc1F` (centres unmarked) [Example 215, 2-(2,4-Difluoro-phenylamino)-3,4-difluoro-N-(2-hydroxymethyl-cyclopropylmethoxy)-benzamide], the “% Inhibition @ 1 μM” value is 11.7% and the “% Inhibition @ 10 μM” value amounted to 84.8%. In the case of `O=C(NOCC1CC1CO)c1ccc(F)c(F)c1Nc1ccc(Cl)cc1F` (centres unmarked) [Example 216, 2-(4-Chloro-2-fluoro-phenylamino)-3,4-difluoro-N-(2-hydroxymethyl-cyclopropylmethoxy)-benzamide], the “% Inhibition @ 0.1 μM” value is 41.2% and the “% Inhibition @ 1 μM” value was 87.6%.

Consider `O=C(NOCC1CC1CO)c1cc(F)c(F)cc1Nc1ccc(I)cc1F` (centres unmarked) [Example 217, 4,5-Difluoro-2-(2-fluoro-4-iodo-phenylamino)-N-(2-hydroxymethyl-cyclopropylmethoxy)-benzamide], for which the “% Inhibition @ 0.1 μM” value was 26.9% and the “% Inhibition @ 1 μM” value turned out to be 93.1%. For `O=C(NOCC1(CO)CC1)c1ccc(F)c(F)c1Nc1ccc(I)cc1F` [Example 218, 3,4-Difluoro-2-(2-fluoro-4-iodo-phenylamino)-N-(1-hydroxymethyl-cyclopropylmethoxy)-benzamide], in that order: 87% and 96.9%.

On to `O=C(NOCC1(CO)CC1)c1cc(F)c(F)c(F)c1Nc1ccc(I)cc1F` [Example 219, 3,4,5-Trifluoro-2-(2-fluoro-4-iodo-phenylamino)-N-(1-hydroxymethyl-cyclopropylmethoxy)-benzamide], for which the “% Inhibition @ 0.1 μM” value came out at 65.3% and the “% Inhibition @ 1 μM” value is listed as 96.2%. Taken in the same sequence, the figures for `O=C(NOCC1(CO)CC1)c1cc(Br)c(F)c(F)c1Nc1ccc(I)cc1F` [Example 220, 5-Bromo-3,4-difluoro-2-(2-fluoro-4-iodo-phenylamino)-N-(1-hydroxymethyl-cyclopropylmethoxy)-benzamide] were 35.4% and 88.8%. Taken in the same sequence, the figures for `O=C(NOCC1(CO)CC1)c1cc(F)c(F)cc1Nc1ccc(I)cc1F` [Example 221, 4,5-Difluoro-2-(2-fluoro-4-iodo-phenylamino)-N-(1-hydroxymethyl-cyclopropylmethoxy)-benzamide] were 46% and 92.4%. `O=C(NOCC1(CO)CC1)c1ccc(F)c(F)c1Nc1ccc(F)cc1F` [Example 222, 2-(2,4-Difluoro-phenylamino)-3,4-difluoro-N-(1-hydroxymethyl-cyclopropylmethoxy)-benzamide]: the “% Inhibition @ 1 μM” value was determined as 9.6% and the “% Inhibition @ 10 μM” value worked out at 55.6%. In the case of `O=C(NOCC1(CO)CC1)c1ccc(F)c(F)c1Nc1ccc(Br)cc1F` [Example 223, 2-(4-Bromo-2-fluoro-phenylamino)-3,4-difluoro-N-(1-hydroxymethyl-cyclopropylmethoxy)-benzamide], the “% Inhibition @ 0.1 μM” value amounted to 5.2% and the “% Inhibition @ 1 μM” value is 56.7%. With `O=C(NOCC1(CO)CC1)c1ccc(F)c(F)c1Nc1ccc(Cl)cc1F` [Example 224, 2-(4-Chloro-2-fluoro-phenylamino)-3,4-difluoro-N-(1-hydroxymethyl-cyclopropylmethoxy)-benzamide], the “% Inhibition @ 0.1 μM” value is 0% and the “% Inhibition @ 1 μM” value came out at 18.1%. In the case of `O=C(NOCC1(CO)CC1)c1cc(Cl)c(F)c(F)c1Nc1ccc(F)cc1F` [Example 225, 5-Chloro-2-(2,4-difluoro-phenylamino)-3,4-difluoro-N-(1-hydroxymethyl-cyclopropylmethoxy)-benzamide], the “% Inhibition @ 0.1 μM” value came to 0%, the “% Inhibition @ 1 μM” value amounted to 8.7% and the “% Inhibition @ 10 μM” value worked out at 36.9%. As to `COCC(O)CONC(=O)c1ccc(F)c(F)c1Nc1ccc(F)cc1F` (centres unmarked) [Example 226, 2-(2,4-Difluoro-phenylamino)-3,4-difluoro-N-(2-hydroxy-3-methoxy-propoxy)-benzamide], the “% Inhibition @ 1 μM” value came to 41.5% and the “% Inhibition @ 10 μM” value came out at 84.1%.

As for `COCC(O)CONC(=O)c1cc(Cl)c(F)c(F)c1Nc1ccc(F)cc1F` (centres unmarked) [Example 227, 5-Chloro-2-(2,4-difluoro-phenylamino)-3,4-difluoro-N-(2-hydroxy-3-methoxy-propoxy)-benzamide], the “% Inhibition @ 1 μM” value worked out at 24.2% and the “% Inhibition @ 10 μM” value stood at 63%.
